Data on seven molecules can be found in patent US6316409A, “Modified ligands of calcium-dependent binding proteins” (Medical Research Council, priority 1996, dated 2001).

Assay [1] addresses T1, bovine brain calmodulin (Bos taurus, UniProt P62157).
T1 construct: Complexes between calmodulin from bovine brain (1 μM, Sigma); purchased Sigma; host or cells: bovine brain (tissue-derived)
In words: stopped-flow measurement of kisom of calmodulin-binding peptides. Conditions: changes in tryptophan fluorescence. An excerpt:
It has been shown by Torok and Trentham (1994) that smooth muscle MLCK-derived peptides bind to calmodulin with a biphasic kinetic according to the scheme: [drawing 1]
in which P is the peptide, C is calmodulin, P-C is the first complex formed on association of P and C, which then undergoes a conformational isomerisation to P-C*.
(§1) For a kinetic and thermodynamic characterisation of the binding of the peptides of the present invention to bovine brain calmodulin, we have measured the kinetic isomerisation, association, and dissociation constants from which dissociation constants can be derived.
kisom constants have been measured by stopped-flow, detecting changes in tryptophan fluorescence for all the peptides except 3 (SEQ ID NO:4), in which the tryptophan is replaced by alanine.

For assay [2], the target named is T1, bovine brain calmodulin. In words: BIAcore surface plasmon resonance, kon and koff of calmodulin binding to biotinylated peptides. Conditions: for koff: read-out: koff (s^-1)^B; for kon: read-out: kon (s^-1 M^-1)^B; for improvement in Kd / affinity for calmodulin over the wild type peptide, in words: Table 1.
From the text: as §1
koff =k-1·k-2 /(k+2 +k-2)
Real-time interaction analysis by surface plasmon resonance on a BIAcore instrument (Jonsson et al., 1991) was used to determine kon and koff constants. Biotinylated peptides 1-17 were bound to commercially available streptavidin-coated microsensor chips (Pharmacia Biosensor), in order to achieve a surface capacity of 100-200 surface plasmon resonance units of calmodulin bound. Different concentrations of calmodulin (5, 10, 20, 50 and 100 nM in the order of FIG. 2) were injected and allowed to associate with the peptides. Regeneration of the surface was achieved by injection of 5 μl TBS+[…] which dissociates the calmodulin-peptide complex.
For orientation: SPR reads the build-up and loss of mass on a sensor chip optically.

The target of assay [3] is calmodulin (Bos taurus, UniProt P62157). Put plainly: koff by competition experiments, native PAGE of fluorescein-labelled peptide/calmodulin complexes. The class given is binding, bovine. Conditions: for koff: competition with 30-fold excess unlabelled peptide, room temperature, gel buffer, read-out: koff (s^-1)^C; for dissociation from calmodulin in competition with excess unlabelled peptide, in words: FIG. 3. Also noted: Complexes between calmodulin from bovine brain (1 μM, Sigma); purchased Sigma; host or cells: bovine brain (tissue-derived). Here is the method: Complexes between calmodulin from bovine brain (1 μM, Sigma) and fluorescein-labelled sMLCK-derived peptides (as described in Table 1 (SEQ ID NOS:2-18)) were prepared in gel buffer (25% gel mix [4 g sucrose+1 mg bromophenol blue in water to give a 10 ml solution]+75% TBSC [50 mM TRIS pH 7.4, […]+50 μM CaCl2)] and run on a 15% native PAGE gel (5 ml 30% acrylamide-bisacrylamide solution+4.5 ml water+0.5 ml 3M Tris, pH 8.8, +1 μl 1M CaCl2 polymerised with 30 μl 25% ammonium persulphate and 9 μl TEMED) using 14.4 g/l glycine+3 g/l Tris-base+0.1 mM CaCl2 as running buffer. Peptides were labelled either with iodoacetamido fluorescein (Molecular Probes) or with iodoacetamido-LC-biotin (Pierce) essentially as previously described by Neri et al., (1995). In these conditions, the fluorescence of the positively-charged labelled peptides can be detected only if they form a stable complex with calmodulin.
In order to obtain an independent experimental confirmation if the BIAcore results, koff constants for peptides 1-17 towards calmodulin were determined by competition experiments. 30 nM fluorescein-labelled peptide/calmodulin complexes in gel buffer were competed at room temperature for different times with 30-fold excess of unlabelled peptide. The resulting mixtures were run on native PAGE gels and imaged by LUANA as described above. The bands in the image obtained were integrated using the LUANA software (Neri et al., 1996) and the corresponding intersities plotted versus time and fitted with a single exponential, from which koff constants were derived. In order to normalise band intensities against pipetting errors, the samples contained 6 nM free fluorescein which ran with the front. The fluorescein bands were integrated and used to normalise the calmodulin/fluorescent peptide complex band intensity. The results of competitions for peptides 1, 2, 3, 6, 9, and 14 are shown in this FIG. 3. Incubation time in minutes is indicated under the lanes.
The volumes of the bands were plotted versus competition time and fitted to a single exponential, from which koff values were derived.
The fastest competitions (peptides 1-4, 9 and 13, SEQ ID NOS:2-5,10, and 14) were over by the time the calmodulin/fluorescent peptide complex entered the gel (approximately 5-10 minutes from pipetting a molar excess of unlabelled peptide; FIG. 3), from which a condition on the off-rate constant koff >1×10^-3 s^-1 was derived. Even for these fast off-rates, complexes can be detected by native polyacrylamide gel electrophoresis because of the well known gel "cage effect" (Fried and Crothers, 1981; Garner and Revzin, 1981).

Each structure is given as a SMILES string. Entries after “also recorded” stand apart in the source; their conditions may differ. Peptide text beside a SMILES is read from it.

Turning to `CC[C@H](C)[C@H](NC(=O)[C@H](CCCCN)NC(=O)[C@H](CCCCN)NC(=O)[C@H](Cc1ccccc1)NC(=O)[C@H](CCCNC(=N)N)NC(=O)[C@H](CC(N)=O)NC(=O)[C@H](C)NC(=O)[C@H](C)NC(=O)[C@H](CO)NC(=O)[C@@H](NC(=O)[C@H](C)NC(=O)[C@H](C)NC(=O)[C@H](Cc1ccccc1)NC(=O)[C@H](CC(N)=O)NC(=O)[C@H](CCCCN)NC(=O)[C@H](CCCCN)NC(=O)[C@H](Cc1c[nH]c2ccccc12)NC(=O)[C@H](CCCNC(=N)N)NC(=O)[C@H](C)NC(=O)[C@H](C)NC(=O)[C@H](C)NC(=O)[C@@H](N)CS)C(C)C)C(=O)N[C@@H](CO)C(N)=O` [Peptide 8] (H-CAAARWKKNFAAVSAANRFKKIS-NH2; N-terminus assumed), in assay [1], the “kisom. (s^-1)^A” value is listed as 1.1 (10.3) × 10^-1 s^-1. Further, the koff (usually the first-order rate constant of dissociation) stood at 0.00023 s⁻¹ in assay [2] (BIAcore) and 0.00047 s⁻¹ in assay [3]. For the same molecule, the kon – broadly, the rate constant with which the complex forms – in assay [2] (BIAcore) is 920000 M⁻¹ s⁻¹.
With `CC[C@H](C)[C@H](NC(=O)[C@H](Cc1ccccc1)NC(=O)[C@H](CC(N)=O)NC(=O)[C@H](CCCCN)NC(=O)[C@H](CCCCN)NC(=O)[C@H](Cc1c[nH]c2ccccc12)NC(=O)[C@H](CCCNC(=N)N)NC(=O)[C@H](C)NC(=O)[C@H](C)NC(=O)[C@H](C)NC(=O)[C@@H](N)CS)C(=O)N[C@@H](C)C(=O)N[C@@H](C)C(=O)N[C@@H](CO)C(=O)N[C@@H](C)C(=O)N[C@@H](C)C(=O)N[C@@H](CC(N)=O)C(=O)N[C@@H](CCCNC(=N)N)C(=O)N[C@@H](Cc1ccccc1)C(=O)N[C@@H](CCCCN)C(=O)N[C@@H](CCCCN)C(=O)N[C@H](C(=O)N[C@@H](CO)C(N)=O)[C@@H](C)CC` [Peptide 9] (H-CAAARWKKNFIAASAANRFKKIS-NH2; N-terminus assumed), the “kisom. (s^-1)^A” value in assay [1] is 1.5 (10.3) × 10^-1 s^-1. For the same molecule, in assay [2] (BIAcore), the koff was determined as 0.0012 s⁻¹ and the kon worked out at 860000 M⁻¹ s⁻¹. For the same molecule, in assay [3], the “dissociation from calmodulin in competition with excess unlabelled peptide, in words” value is “dissociated from calmodulin in a few minutes” and the koff was not below 0.001 s⁻¹.
On to `CC[C@H](C)[C@H](NC(=O)[C@H](Cc1ccccc1)NC(=O)[C@H](CC(N)=O)NC(=O)[C@H](CCCCN)NC(=O)[C@H](CCCCN)NC(=O)[C@H](Cc1c[nH]c2ccccc12)NC(=O)[C@H](CCCNC(=N)N)NC(=O)[C@H](C)NC(=O)[C@H](C)NC(=O)[C@H](C)NC(=O)[C@@H](N)CS)C(=O)N[C@@H](C)C(=O)N[C@H](C(=O)N[C@@H](C)C(=O)N[C@@H](C)C(=O)N[C@@H](C)C(=O)N[C@@H](CC(N)=O)C(=O)N[C@@H](CCCNC(=N)N)C(=O)N[C@@H](Cc1ccccc1)C(=O)N[C@@H](CCCCN)C(=O)N[C@@H](CCCCN)C(=O)N[C@H](C(=O)N[C@@H](CO)C(N)=O)[C@@H](C)CC)C(C)C` [Peptide 10] (H-CAAARWKKNFIAVAAANRFKKIS-NH2; N-terminus assumed), for which the “kisom. (s^-1)^A” value in assay [1] is listed as 2.1 (11.0) × 10^-1 s^-1. In assay [2], the “improvement of koff with respect to wild type, in words” value was “largest improvements” and the “improvement in Kd / affinity for calmodulin over the wild type peptide, in words” value is “greatest improvement in affinity; also recorded: greatest improvement in Kd”. For the same molecule, in assay [2] (BIAcore), the koff was determined as 0.0001 s⁻¹ and the kon amounted to 1.1e+06 M⁻¹ s⁻¹. Moreover, in assay [3], the koff amounted to 7.9e-05 s⁻¹.
In the case of `CC[C@H](C)[C@H](NC(=O)[C@H](Cc1ccccc1)NC(=O)[C@H](CC(N)=O)NC(=O)[C@H](CCCCN)NC(=O)[C@H](CCCCN)NC(=O)[C@H](Cc1c[nH]c2ccccc12)NC(=O)[C@H](CCCNC(=N)N)NC(=O)[C@H](C)NC(=O)[C@H](C)NC(=O)[C@H](C)NC(=O)[C@@H](N)CS)C(=O)N[C@@H](C)C(=O)N[C@H](C(=O)N[C@@H](CO)C(=O)N[C@@H](C)C(=O)N[C@@H](C)C(=O)N[C@@H](C)C(=O)N[C@@H](CCCNC(=N)N)C(=O)N[C@@H](Cc1ccccc1)C(=O)N[C@@H](CCCCN)C(=O)N[C@@H](CCCCN)C(=O)N[C@H](C(=O)N[C@@H](CO)C(N)=O)[C@@H](C)CC)C(C)C` [Peptide 11] (H-CAAARWKKNFIAVSAAARFKKIS-NH2; N-terminus assumed), the “kisom. (s^-1)^A” value in assay [1] is 2.8 (10.6) × 10^-2 s^-1. Besides, in assay [2] (BIAcore), the dissociation rate constant (koff) was determined as 0.00035 s⁻¹ and the kon turned out to be 940000 M⁻¹ s⁻¹. Moreover, the koff in assay [3] was 0.00049 s⁻¹.
As to `CC[C@H](C)[C@H](NC(=O)[C@H](Cc1ccccc1)NC(=O)[C@H](CC(N)=O)NC(=O)[C@H](CCCCN)NC(=O)[C@H](CCCCN)NC(=O)[C@H](Cc1c[nH]c2ccccc12)NC(=O)[C@H](CCCNC(=N)N)NC(=O)[C@H](C)NC(=O)[C@H](C)NC(=O)[C@H](C)NC(=O)[C@@H](N)CS)C(=O)N[C@@H](C)C(=O)N[C@H](C(=O)N[C@@H](CO)C(=O)N[C@@H](C)C(=O)N[C@@H](C)C(=O)N[C@@H](CC(N)=O)C(=O)N[C@@H](C)C(=O)N[C@@H](Cc1ccccc1)C(=O)N[C@@H](CCCCN)C(=O)N[C@@H](CCCCN)C(=O)N[C@H](C(=O)N[C@@H](CO)C(N)=O)[C@@H](C)CC)C(C)C` [Peptide 12] (H-CAAARWKKNFIAVSAANAFKKIS-NH2; N-terminus assumed), in assay [1], the “kisom. (s^-1)^A” value is recorded as 1.7 (10.4) × 10^-1 s^-1. In assay [2] (BIAcore), the koff amounted to 0.00041 s⁻¹ and the kon was determined as 1.6e+06 M⁻¹ s⁻¹. Moreover, in assay [3], the koff was 0.00083 s⁻¹.
For the molecule `CC[C@H](C)[C@H](NC(=O)[C@H](Cc1ccccc1)NC(=O)[C@H](CC(N)=O)NC(=O)[C@H](CCCCN)NC(=O)[C@H](CCCCN)NC(=O)[C@H](Cc1c[nH]c2ccccc12)NC(=O)[C@H](CCCNC(=N)N)NC(=O)[C@H](C)NC(=O)[C@H](C)NC(=O)[C@H](C)NC(=O)[C@@H](N)CS)C(=O)N[C@@H](C)C(=O)N[C@H](C(=O)N[C@@H](CO)C(=O)N[C@@H](C)C(=O)N[C@@H](C)C(=O)N[C@@H](CC(N)=O)C(=O)N[C@@H](CCCNC(=N)N)C(=O)N[C@@H](C)C(=O)N[C@@H](CCCCN)C(=O)N[C@@H](CCCCN)C(=O)N[C@H](C(=O)N[C@@H](CO)C(N)=O)[C@@H](C)CC)C(C)C` [Peptide 13] (H-CAAARWKKNFIAVSAANRAKKIS-NH2; N-terminus assumed), the “kisom. (s^-1)^A” value in assay [1] is recorded as 1.8 (10.8) × 10^-1 s^-1. Also, the results for the koff in assay [2] (BIAcore) and in assay [3] were 0.00084 s⁻¹ and not below 0.001 s⁻¹, respectively. For the same molecule, the kon in assay [2] (BIAcore) came out at 930000 M⁻¹ s⁻¹.
Consider `CC[C@H](C)[C@H](NC(=O)[C@H](Cc1ccccc1)NC(=O)[C@H](CC(N)=O)NC(=O)[C@H](CCCCN)NC(=O)[C@H](CCCCN)NC(=O)[C@H](Cc1c[nH]c2ccccc12)NC(=O)[C@H](CCCNC(=N)N)NC(=O)[C@H](C)NC(=O)[C@H](C)NC(=O)[C@H](C)NC(=O)[C@@H](N)CS)C(=O)N[C@@H](C)C(=O)N[C@H](C(=O)N[C@@H](CO)C(=O)N[C@@H](C)C(=O)N[C@@H](C)C(=O)N[C@@H](CC(N)=O)C(=O)N[C@@H](CCCNC(=N)N)C(=O)N[C@@H](Cc1ccccc1)C(=O)N[C@@H](C)C(=O)N[C@@H](CCCCN)C(=O)N[C@H](C(=O)N[C@@H](CO)C(N)=O)[C@@H](C)CC)C(C)C` [Peptide 14] (H-CAAARWKKNFIAVSAANRFAKIS-NH2; N-terminus assumed), for which the “kisom. (s^-1)^A” value in assay [1] is reported as 1.6 (10.2) × 10^-2 s^-1. Further, in assay [2] (BIAcore), the “increase in kon with respect to the wild-type peptide 1” value is given as 4-5 fold, the koff stood at 0.00014 s⁻¹ and the kon worked out at 2.5e+06 M⁻¹ s⁻¹. Also, in assay [2], the “improvement in Kd / affinity for calmodulin over the wild type peptide, in words” value is recorded as “greatest improvement in affinity”. Besides, in assay [3], the “dissociation from calmodulin in competition with excess unlabelled peptide, in words” value is reported as “intermediate off-rate” and the koff was found to be 0.00015 s⁻¹.
